Experiments:
Format in all cases: cell-based
M4 muscarinic receptor = target: T1, M4 muscarinic receptor (Homo sapiens, UniProt P08173); test: Functional mobilization of intracellular calcium (FLIPR), M4-CHO cells; conditions: for Emax: 100% efficacy = maximum response obtained with the Carbachol control; for M4 Activity: M4-CHO cells, calcium mobilization (FLIPR)
T1 construct: expressed in transfected cells; host or cells: CHO (M4-CHO)
T1 sequence (P08173 1-479): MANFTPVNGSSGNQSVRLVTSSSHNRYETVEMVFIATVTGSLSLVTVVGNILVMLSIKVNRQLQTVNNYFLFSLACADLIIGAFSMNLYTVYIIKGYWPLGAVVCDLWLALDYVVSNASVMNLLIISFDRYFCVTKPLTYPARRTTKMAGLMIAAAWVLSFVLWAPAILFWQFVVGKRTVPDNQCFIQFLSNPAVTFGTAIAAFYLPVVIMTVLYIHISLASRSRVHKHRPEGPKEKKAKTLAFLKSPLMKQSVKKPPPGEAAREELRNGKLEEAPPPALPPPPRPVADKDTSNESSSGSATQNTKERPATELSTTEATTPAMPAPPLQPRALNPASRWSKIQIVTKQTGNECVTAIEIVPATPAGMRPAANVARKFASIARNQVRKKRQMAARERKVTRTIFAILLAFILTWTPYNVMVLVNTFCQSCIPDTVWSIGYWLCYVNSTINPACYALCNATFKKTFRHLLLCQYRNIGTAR
In short: (§1)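 CHO cells expressing human M1–M4 receptors loaded with Fluo-3 AM or Calcium 3 dye (1 mM probenecid, pH 7.4); 0.5% DMSO final. Agonist mode: compound added directly; antagonist mode: 15 min pre-incubation or co-application, then carbachol at EC80. Fluorescence read 60 s on FLIPR; efficacy relative to carbachol maximum.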

M1 muscarinic receptor = target: T2, M1 muscarinic receptor (Homo sapiens, UniProt P11229); test: Functional mobilization of intracellular calcium (FLIPR), M1-CHO cells; conditions: for Emax: 100% efficacy = maximum response obtained with the Carbachol control; for M1 Activity: M1-CHO cells, calcium mobilization (FLIPR)
T2 construct: expressed in transfected cells; host or cells: CHO (M1-CHO)
T2 sequence (P11229 1-460): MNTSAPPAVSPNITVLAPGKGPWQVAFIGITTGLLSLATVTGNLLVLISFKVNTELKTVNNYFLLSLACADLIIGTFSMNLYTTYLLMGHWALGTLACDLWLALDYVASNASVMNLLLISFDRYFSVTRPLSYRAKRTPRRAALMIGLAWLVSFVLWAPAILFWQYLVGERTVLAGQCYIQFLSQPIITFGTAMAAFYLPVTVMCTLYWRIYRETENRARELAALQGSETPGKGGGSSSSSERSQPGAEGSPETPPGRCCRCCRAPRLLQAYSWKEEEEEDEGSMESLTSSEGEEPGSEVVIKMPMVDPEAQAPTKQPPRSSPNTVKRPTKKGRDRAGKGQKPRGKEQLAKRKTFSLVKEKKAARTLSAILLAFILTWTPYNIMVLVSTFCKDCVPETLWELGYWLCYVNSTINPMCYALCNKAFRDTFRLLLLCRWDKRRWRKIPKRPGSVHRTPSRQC
In short: as §1

M3 muscarinic receptor = target: T3, M3 muscarinic receptor (Homo sapiens, UniProt P20309); test: Functional mobilization of intracellular calcium (FLIPR), M3-CHO cells; conditions: for Emax: 100% efficacy = maximum response obtained with the Carbachol control; for M3 Activity: M3-CHO cells, calcium mobilization (FLIPR)
T3 construct: expressed in transfected cells; host or cells: CHO (M3-CHO)
T3 sequence (P20309 whole entry): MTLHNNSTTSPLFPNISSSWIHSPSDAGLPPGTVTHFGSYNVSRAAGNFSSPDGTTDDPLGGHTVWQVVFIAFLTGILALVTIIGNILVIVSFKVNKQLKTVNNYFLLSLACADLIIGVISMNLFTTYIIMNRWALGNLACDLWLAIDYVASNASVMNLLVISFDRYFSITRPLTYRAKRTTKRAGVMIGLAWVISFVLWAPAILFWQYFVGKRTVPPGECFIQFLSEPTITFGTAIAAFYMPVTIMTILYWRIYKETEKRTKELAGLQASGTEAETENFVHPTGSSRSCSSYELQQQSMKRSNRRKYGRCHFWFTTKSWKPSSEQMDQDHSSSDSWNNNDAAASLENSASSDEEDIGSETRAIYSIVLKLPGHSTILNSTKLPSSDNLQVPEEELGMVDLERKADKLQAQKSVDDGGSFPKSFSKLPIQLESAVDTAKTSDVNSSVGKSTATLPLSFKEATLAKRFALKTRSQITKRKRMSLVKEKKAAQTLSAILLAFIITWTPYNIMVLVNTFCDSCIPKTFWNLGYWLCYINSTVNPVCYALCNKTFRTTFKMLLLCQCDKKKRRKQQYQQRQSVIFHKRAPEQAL
In short: as §1

M2 muscarinic receptor = target: T4, M2 muscarinic receptor (Homo sapiens, UniProt P08172); test: Functional mobilization of intracellular calcium (FLIPR), M2-CHO cells; conditions: for Emax: 100% efficacy = maximum response obtained with the Carbachol control; for M2 Activity: M2-CHO cells, calcium mobilization (FLIPR)
T4 construct: expressed in transfected cells; host or cells: CHO (M2-CHO)
T4 sequence (P08172 1-466): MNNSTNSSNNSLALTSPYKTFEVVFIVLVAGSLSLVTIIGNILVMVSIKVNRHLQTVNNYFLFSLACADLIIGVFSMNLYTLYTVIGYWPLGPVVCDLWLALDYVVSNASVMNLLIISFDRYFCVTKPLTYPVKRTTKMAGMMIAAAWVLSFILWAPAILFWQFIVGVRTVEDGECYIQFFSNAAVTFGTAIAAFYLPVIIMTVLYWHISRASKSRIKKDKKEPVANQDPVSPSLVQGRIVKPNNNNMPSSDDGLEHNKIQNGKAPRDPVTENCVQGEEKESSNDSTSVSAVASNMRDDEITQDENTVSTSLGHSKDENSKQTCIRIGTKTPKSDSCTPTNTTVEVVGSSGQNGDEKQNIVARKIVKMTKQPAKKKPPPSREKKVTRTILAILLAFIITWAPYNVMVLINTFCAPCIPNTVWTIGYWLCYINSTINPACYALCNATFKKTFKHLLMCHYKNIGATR
In short: as §1

Emax (M4 muscarinic receptor) [%] | Emax (M1 muscarinic receptor) [%] | Emax (M3 muscarinic receptor) [%] | Emax (M2 muscarinic receptor) [%] | SMILES | M4 Activity (M4 muscarinic receptor) | M1 Activity (M1 muscarinic receptor) | M3 Activity (M3 muscarinic receptor) | M2 Activity (M2 muscarinic receptor)
25 to 100 | 25 to 100 | < 25 | < 25 | CCOC(=O)N1CCC(CN2CCC(c3cc(-c4ccc(C(=O)NC)c(Cl)c4)ccc3OC)CC2)CC1 [Compound 298] | +++ (activity was measured to be less than 1.0 μM) | ++ (activity was measured to be from 1.0 μM to 5.0 μM) | + (activity was measured to be greater than 5.0 μM) | + (activity was measured to be greater than 5.0 μM)
25 to 100 | 25 to 100 | < 25 | 25 to 100 | COc1ccc(Cl)cc1C1CCN(C2(C)CCCCC2)CC1 [Compound 300, 4-(5-chloro-2-methoxyphenyl)-1-(1-methylcyclo-hexyl)piperidine] | +++ (activity was measured to be less than 1.0 μM) | ++ (activity was measured to be from 1.0 μM to 5.0 μM) | + (activity was measured to be greater than 5.0 μM) | ++ (activity was measured to be from 1.0 μM to 5.0 μM)
25 to 100 | < 25 | < 25 | < 25 | Cc1ccccc1-c1ccccc1C1CCN([C@H]2C[C@H]3CC[C@H]2C3)CC1 [Compound 302] | ++ (activity was measured to be from 1.0 μM to 5.0 μM) | + (activity was measured to be greater than 5.0 μM) | + (activity was measured to be greater than 5.0 μM) | + (activity was measured to be greater than 5.0 μM)
25 to 100 | < 25 | < 25 | < 25 | COc1c(F)cc(F)cc1C1CCN(C2CCOCC2)CC1 [Compound 305] | ++ (activity was measured to be from 1.0 μM to 5.0 μM) | + (activity was measured to be greater than 5.0 μM) | + (activity was measured to be greater than 5.0 μM) | + (activity was measured to be greater than 5.0 μM)
25 to 100 | 25 to 100 | – | 25 to 100 | COc1ccccc1C1CCN(CC2CC3C=CC2C3)CC1 (centres unmarked) [Compound 307] | +++ (activity was measured to be less than 1.0 μM) | ++ (activity was measured to be from 1.0 μM to 5.0 μM) | + (activity was measured to be greater than 5.0 μM) | + (activity was measured to be greater than 5.0 μM)
25 to 100 | 25 to 100 | < 25 | 25 to 100 | COc1ccc(Cl)cc1C1(F)CCN([C@@H]2C[C@H]3CC[C@H]2C3)CC1 [Compound 309] | ++ (activity was measured to be from 1.0 μM to 5.0 μM) | + (activity was measured to be greater than 5.0 μM) | + (activity was measured to be greater than 5.0 μM) | ++ (activity was measured to be from 1.0 μM to 5.0 μM)

Continued, compound first:

SMILES | Emax (M4 muscarinic receptor) [%] | Emax (M1 muscarinic receptor) [%] | Emax (M3 muscarinic receptor) [%] | Emax (M2 muscarinic receptor) [%] | M4 Activity (M4 muscarinic receptor) | M1 Activity (M1 muscarinic receptor) | M3 Activity (M3 muscarinic receptor) | M2 Activity (M2 muscarinic receptor)
Fc1ccc(-c2ccccc2C2CCN([C@H]3C[C@H]4CC[C@H]3C4)CC2)cc1 [Compound 294] | 25 to 100 | < 25 | < 25 | < 25 | ++ (activity was measured to be from 1.0 μM to 5.0 μM) | + (activity was measured to be greater than 5.0 μM) | + (activity was measured to be greater than 5.0 μM) | + (activity was measured to be greater than 5.0 μM)
CCOC(=O)N1CCC(CN2CCC(OC)(c3cc(F)ccc3OC)CC2)CC1 [Compound 295] | 25 to 100 | 25 to 100 | < 25 | 25 to 100 | +++ (activity was measured to be less than 1.0 μM) | +++ (activity was measured to be less than 1.0 μM) | + (activity was measured to be greater than 5.0 μM) | ++ (activity was measured to be from 1.0 μM to 5.0 μM)
COc1ccc(C(F)(F)F)cc1C1CCN(C2C[C@H]3CC[C@H]2C3)CC1 (some centres unmarked) [Compound 296] | 25 to 100 | 25 to 100 | < 25 | < 25 | ++ (activity was measured to be from 1.0 μM to 5.0 μM) | ++ (activity was measured to be from 1.0 μM to 5.0 μM) | + (activity was measured to be greater than 5.0 μM) | + (activity was measured to be greater than 5.0 μM)
CCOC(=O)N1CCC(CN2CCC(c3cc(-c4ccc5c(c4)OCO5)ccc3OC)CC2)CC1 [Compound 297] | 25 to 100 | 25 to 100 | < 25 | < 25 | ++ (activity was measured to be from 1.0 μM to 5.0 μM) | ++ (activity was measured to be from 1.0 μM to 5.0 μM) | + (activity was measured to be greater than 5.0 μM) | + (activity was measured to be greater than 5.0 μM)
CCOC(=O)N1CCC(CN2CCC(c3ccccc3C)CC2)CC1 [Compound 306] | 25 to 100 | 25 to 100 | 25 to 100 | 25 to 100 | +++ (activity was measured to be less than 1.0 μM) | +++ (activity was measured to be less than 1.0 μM) | +++ (activity was measured to be less than 1.0 μM) | +++ (activity was measured to be less than 1.0 μM)
COc1cc(F)c(F)c(C2CCN(C3CC4CCC(C4)C3)CC2)c1 (centres unmarked) [Compound 310] | 25 to 100 | < 25 | < 25 | < 25 | +++ (activity was measured to be less than 1.0 μM) | + (activity was measured to be greater than 5.0 μM) | + (activity was measured to be greater than 5.0 μM) | + (activity was measured to be greater than 5.0 μM)
